Measured values from PubChem BioAssay (NCI).
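Tested at 5 concentrations; 48 h exposure; 96-well plates; endpoints linearly interpolated, else capped at highest concentration. TGI denotes the concentration required for complete inhibition of growth.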

Each compound was assayed on SK-MEL-28 melanoma (assay: growth of human tumour cells (NCI), 48 h).
O=c1cc(-c2ccc(Oc3ccccc3)cc2)[nH]c2cc3c(cc12)OCO3 gave a TGI of over 100 µM.
For CC(C)=C[C@H]1CCC2(OCCO2)[C@]1(C)CO, the TGI was over 100 µM.
O=C(/C=C/c1ccc2ccccc2c1)NCc1ccc(C(=O)NCCc2ccccc2)cc1 was tested, and the TGI was over 100 µM.
Work on CCOC(=O)CC(C)C1(C(=O)OCC)CCCCC1=O (stereo unspecified) yielded a TGI of over 100 µM.
Nc1nc(-[n+]2ccc(-c3ccncc3)cc2)nc(Cl)c1Cl showed a TGI of over 100 µM.
CC(C)OC(=O)/C=C/C(=O)O/C=C/[N+](=O)[O-] gave a TGI of over 100 µM.
In the case of CC(=O)O[C@H]1C(=O)[C@@]2(C)C(C(OC(=O)c3ccccc3)[C@]3(O)CC(OC(=O)C(O)C(NC(=O)c4ccc(C(F)(F)F)cc4)c4ccccc4)C(C)=C1C3(C)C)[C@]1(OC(C)=O)CO[C@@H]1C[C@@H]2O (stereo partly specified), the TGI is reported as 17.8 µM.
COC(=O)CC1N=C(NC#N)N(CCc2c[nH]c3ccccc23)C1=O (stereo unspecified) showed a TGI of over 100 µM.
COC1=C(OC)C(=O)C(Cc2c(C)nc3sccn23)=C(C)C1=O gave a TGI of 23.3 µM.
For CCOc1ncn(-c2ccc(NC(=S)NC3OC(CO)C(O)C(O)C3O)cc2)n1 (stereo unspecified), the TGI was over 100 µM.
Cn1c(O)c(C(=O)NC2CCCCC2)c(=O)n(C)c1=S gave a TGI of 16.8 µM.
CC(C)=C[C@H]1CCC2(OCCO2)[C@]1(C)COCc1ccccc1 was tested, and the TGI was over 100 µM.
CC1(C)C[C@@H]2C1CCC1(C)CC2(O)CC[C@H]1O (stereo partly specified) was tested, and the TGI was over 100 µM.
c1ccc(CNc2nncc3[nH]cnc23)cc1 was tested, and the TGI was over 100 µM.
With Nc1nc([O-])c2c(n1)[n+](C1OC(CO)C(O)C1O)cn2CCO (stereo unspecified) the TGI was over 100 µM.
CC(CC[C@@]1(C)C(=O)CCC2O[C@]21C)[C@H]1C[C@@H](c2ccoc2)OC1=O (stereo partly specified) showed a TGI of 70.8 µM.
O=Cc1ccccc1COC(=O)c1cc(C(=O)OCc2ccccc2C=O)c(C(=O)OCc2ccccc2C=O)cc1C(=O)OCc1ccccc1C=O gave a TGI of over 100 µM.
Work on CCOC1=NC(O)c2cccn2-c2sccc21 (stereo unspecified) yielded a TGI of over 100 µM.
With O=C1NC(=S)NC(=O)C1C(c1ccc(O)cc1)C1C(=O)NC(=S)NC1=O the TGI was over 100 µM.
Compound N#C/C(=C/NC(N)=S)C(N)=O has a TGI of over 100 µM.
Work on CN(C)CC1CCCC(CN(C)C)C1OC(=O)c1ccccc1 (stereo unspecified) yielded a TGI of over 100 µM.
For Cc1cc(N(CCC#N)CCC#N)ccc1/C=C(\NC(=O)/C=C/c1ccccc1)C(N)=O, the TGI was over 100 µM.
CN=C(SC)N(C)c1nc(=[N+](C)C)ss1 gave a TGI of over 100 µM.
CCN(CC)CCSc1c2cc(OC)ccc2nc2ccc(OC)cc12 gave a TGI of 32.7 µM.
For CCOC(=O)c1ccc(NCc2ccc3oc(=O)c(-c4ccccc4)nc3c2)cc1, the TGI was 87.3 µM.
Compound CC(C)=CCC(O)[C@](C)(O)[C@H]1[C@H](O)C[C@@]2(C)[C@@H]3CCc4cc(O)c(OC5OC(CO)C(O)C(O)C5O)cc4C3(C)C(=O)C[C@]12C (stereo partly specified) has a TGI of over 100 µM.
Work on C[Si](C)(C)OC1CC(=O)OC1n1cc(F)c(=O)[nH]c1=O (stereo unspecified) yielded a TGI of over 100 µM.

What follows are compounds tested on EKVX NSCLC (assay: growth of human tumour cells (NCI), 48 h).
With O=c1cc(-c2ccc(Oc3ccccc3)cc2)[nH]c2cc3c(cc12)OCO3 the TGI was over 100 µM.
CC(C)=C[C@H]1CCC2(OCCO2)[C@]1(C)CO showed a TGI of over 100 µM.
Work on CCOC(=O)CC(C)C1(C(=O)OCC)CCCCC1=O (stereo unspecified) yielded a TGI of over 100 µM.
With Nc1nc(-[n+]2ccc(-c3ccncc3)cc2)nc(Cl)c1Cl the TGI was over 100 µM.
Work on CC(C)OC(=O)/C=C/C(=O)O/C=C/[N+](=O)[O-] yielded a TGI of over 100 µM.
With COC(=O)CC1N=C(NC#N)N(CCc2c[nH]c3ccccc23)C1=O (stereo unspecified) the TGI was over 100 µM.
Compound COC1=C(OC)C(=O)C(Cc2c(C)nc3sccn23)=C(C)C1=O has a TGI of 29 µM.
With CCOc1ncn(-c2ccc(NC(=S)NC3OC(CO)C(O)C(O)C3O)cc2)n1 (stereo unspecified) the TGI was over 100 µM.
Work on CC(C)=C[C@H]1CCC2(OCCO2)[C@]1(C)COCc1ccccc1 yielded a TGI of over 100 µM.
CC1(C)C[C@@H]2C1CCC1(C)CC2(O)CC[C@H]1O (stereo partly specified) gave a TGI of over 100 µM.
In the case of c1ccc(CNc2nncc3[nH]cnc23)cc1, the TGI is reported as over 100 µM.
Work on Nc1nc([O-])c2c(n1)[n+](C1OC(CO)C(O)C1O)cn2CCO (stereo unspecified) yielded a TGI of over 100 µM.
CC(CC[C@@]1(C)C(=O)CCC2O[C@]21C)[C@H]1C[C@@H](c2ccoc2)OC1=O (stereo partly specified) showed a TGI of over 100 µM.
O=Cc1ccccc1COC(=O)c1cc(C(=O)OCc2ccccc2C=O)c(C(=O)OCc2ccccc2C=O)cc1C(=O)OCc1ccccc1C=O showed a TGI of over 100 µM.
Compound N#C/C(=C/NC(N)=S)C(N)=O has a TGI of over 100 µM.
CN(C)CC1CCCC(CN(C)C)C1OC(=O)c1ccccc1 (stereo unspecified) showed a TGI of over 100 µM.
With Cc1cc(N(CCC#N)CCC#N)ccc1/C=C(\NC(=O)/C=C/c1ccccc1)C(N)=O the TGI was over 100 µM.
With CN=C(SC)N(C)c1nc(=[N+](C)C)ss1 the TGI was over 100 µM.
For CCN(CC)CCSc1c2cc(OC)ccc2nc2ccc(OC)cc12, the TGI was 29.7 µM.
CCOC(=O)c1ccc(NCc2ccc3oc(=O)c(-c4ccccc4)nc3c2)cc1 was tested, and the TGI was over 100 µM.
Work on CC(C)=CCC(O)[C@](C)(O)[C@H]1[C@H](O)C[C@@]2(C)[C@@H]3CCc4cc(O)c(OC5OC(CO)C(O)C(O)C5O)cc4C3(C)C(=O)C[C@]12C (stereo partly specified) yielded a TGI of over 100 µM.
Compound C[Si](C)(C)OC1CC(=O)OC1n1cc(F)c(=O)[nH]c1=O (stereo unspecified) has a TGI of over 100 µM.

These compounds were tested on CCRF-CEM leukemia (assay: growth of human tumour cells (NCI), 48 h).
Work on O=c1cc(-c2ccc(Oc3ccccc3)cc2)[nH]c2cc3c(cc12)OCO3 yielded a TGI of over 100 µM.
CC(C)=C[C@H]1CCC2(OCCO2)[C@]1(C)CO showed a TGI of over 100 µM.
O=C(/C=C/c1ccc2ccccc2c1)NCc1ccc(C(=O)NCCc2ccccc2)cc1 gave a TGI of over 100 µM.
CCOC(=O)CC(C)C1(C(=O)OCC)CCCCC1=O (stereo unspecified) was tested, and the TGI was over 100 µM.
Nc1nc(-[n+]2ccc(-c3ccncc3)cc2)nc(Cl)c1Cl gave a TGI of 31.8 µM.
Work on CC(=O)O[C@H]1C(=O)[C@@]2(C)C(C(OC(=O)c3ccccc3)[C@]3(O)CC(OC(=O)C(O)C(NC(=O)c4ccc(C(F)(F)F)cc4)c4ccccc4)C(C)=C1C3(C)C)[C@]1(OC(C)=O)CO[C@@H]1C[C@@H]2O (stereo partly specified) yielded a TGI of 15.5 µM.
For COC(=O)CC1N=C(NC#N)N(CCc2c[nH]c3ccccc23)C1=O (stereo unspecified), the TGI was over 100 µM.
